Assay: osmotic coefficient (dimensionless); mn = molality of the nth substance listed, in mol/kg
Conditions: Liquid, isopiestic method

NCC(=O)O [2-aminoacetic acid] + O
Conditions	osmotic coefficient
288.15 K, m1 = 0.2174	0.9554
288.15 K, m1 = 0.2178	0.9554
288.15 K, m1 = 0.3075	0.946
288.15 K, m1 = 0.3078	0.946
288.15 K, m1 = 0.5175	0.9341
288.15 K, m1 = 0.5178	0.934
288.15 K, m1 = 0.6241	0.9302
288.15 K, m1 = 0.6251	0.9302
288.15 K, m1 = 0.8647	0.9219
288.15 K, m1 = 0.8654	0.9219
288.15 K, m1 = 1.193	0.9166
288.15 K, m1 = 1.194	0.9166
293.15 K, m1 = 0.2074	0.9705
293.15 K, m1 = 0.2076	0.9705
293.15 K, m1 = 0.3572	0.9556
293.15 K, m1 = 0.3577	0.9555
293.15 K, m1 = 0.5277	0.9428
293.15 K, m1 = 0.5284	0.9428
293.15 K, m1 = 0.8498	0.9282
293.15 K, m1 = 0.8508	0.9282
293.15 K, m1 = 1.027	0.924
293.15 K, m1 = 1.028	0.924
293.15 K, m1 = 1.298	0.9202
293.15 K, m1 = 1.299	0.9202
298.15 K, m1 = 0.2274	0.9815
298.15 K, m1 = 0.2276	0.981
298.15 K, m1 = 0.3213	0.9767
298.15 K, m1 = 0.3214	0.9764
298.15 K, m1 = 0.5417	0.9583
298.15 K, m1 = 0.7869	0.9461
298.15 K, m1 = 0.7878	0.945
298.15 K, m1 = 0.8048	0.9442
298.15 K, m1 = 0.8059	0.9432
298.15 K, m1 = 1.139	0.9297
298.15 K, m1 = 1.14	0.9295
303.15 K, m1 = 0.203	0.9873
303.15 K, m1 = 0.2037	0.9872
303.15 K, m1 = 0.3379	0.9781
303.15 K, m1 = 0.3388	0.9781
303.15 K, m1 = 0.5346	0.966
303.15 K, m1 = 0.535	0.9659
303.15 K, m1 = 0.7489	0.9539
303.15 K, m1 = 0.7501	0.9538
303.15 K, m1 = 0.854	0.9483
303.15 K, m1 = 0.8547	0.9483
303.15 K, m1 = 1.044	0.9384
303.15 K, m1 = 1.045	0.9384

CCC(N)C(=O)O (stereo not drawn) [(.+-.)-α-aminobutyric acid] + O
Conditions	osmotic coefficient
288.15 K, m1 = 0.2191	0.9642
288.15 K, m1 = 0.2194	0.9642
288.15 K, m1 = 0.3053	0.9569
288.15 K, m1 = 0.3055	0.9569
288.15 K, m1 = 0.5076	0.9529
288.15 K, m1 = 0.5082	0.953
288.15 K, m1 = 0.595	0.9567
288.15 K, m1 = 0.596	0.9567
288.15 K, m1 = 0.7815	0.9748
288.15 K, m1 = 0.7821	0.9749
288.15 K, m1 = 1.057	1.025
288.15 K, m1 = 1.059	1.025
293.15 K, m1 = 0.2031	0.9894
293.15 K, m1 = 0.2034	0.9894
293.15 K, m1 = 0.3484	0.9811
293.15 K, m1 = 0.3492	0.9811
293.15 K, m1 = 0.508	0.9744
293.15 K, m1 = 0.5086	0.9744
293.15 K, m1 = 0.8066	0.9819
293.15 K, m1 = 0.8078	0.982
293.15 K, m1 = 0.9443	1.0001
293.15 K, m1 = 0.9453	1.0003
293.15 K, m1 = 1.139	1.048
293.15 K, m1 = 1.14	1.049
298.15 K, m1 = 0.2217	1.0067
298.15 K, m1 = 0.2219	1.0058
298.15 K, m1 = 0.3106	1.0103
298.15 K, m1 = 0.3109	1.0093
298.15 K, m1 = 0.5105	1.0168
298.15 K, m1 = 0.5108	1.0163
298.15 K, m1 = 0.5636	1.0164
298.15 K, m1 = 0.5637	1.0162
298.15 K, m1 = 0.7428	1.023
298.15 K, m1 = 0.7434	1.023
298.15 K, m1 = 1.022	1.036
298.15 K, m1 = 1.023	1.036
303.15 K, m1 = 0.2054	1.0072
303.15 K, m1 = 0.206	1.0073
303.15 K, m1 = 0.3334	1.0133
303.15 K, m1 = 0.3335	1.0133
303.15 K, m1 = 0.5083	1.0187
303.15 K, m1 = 0.5087	1.0187
303.15 K, m1 = 0.7146	1.025
303.15 K, m1 = 0.7157	1.025
303.15 K, m1 = 0.8091	1.029
303.15 K, m1 = 0.8092	1.029
303.15 K, m1 = 1.03	1.046
303.15 K, m1 = 1.031	1.046

CC(N)C(=O)O (stereo not drawn) [DL-2-aminopropanoic acid] + O
Conditions	osmotic coefficient
288.15 K, m1 = 0.2159	0.9497
288.15 K, m1 = 0.2163	0.9496
288.15 K, m1 = 0.3062	0.944
288.15 K, m1 = 0.3066	0.944
288.15 K, m1 = 0.5085	0.9513
288.15 K, m1 = 0.5093	0.9514
288.15 K, m1 = 0.6031	0.9603
288.15 K, m1 = 0.6037	0.9603
288.15 K, m1 = 0.8076	0.9837
288.15 K, m1 = 0.8082	0.9838
288.15 K, m1 = 1.098	1.01
293.15 K, m1 = 0.2061	0.9725
293.15 K, m1 = 0.2068	0.9724
293.15 K, m1 = 0.3536	0.9656
293.15 K, m1 = 0.354	0.9656
293.15 K, m1 = 0.5134	0.9677
293.15 K, m1 = 0.5145	0.9677
293.15 K, m1 = 0.8192	0.9905
293.15 K, m1 = 0.8199	0.9905
293.15 K, m1 = 0.9719	1.007
293.15 K, m1 = 0.9725	1.007
293.15 K, m1 = 1.185	1.029
293.15 K, m1 = 1.186	1.029
298.15 K, m1 = 0.2238	0.9972
298.15 K, m1 = 0.2243	0.9954
298.15 K, m1 = 0.3134	0.9976
298.15 K, m1 = 0.3135	0.9972
298.15 K, m1 = 0.52	0.9983
298.15 K, m1 = 0.5203	0.9977
298.15 K, m1 = 0.5759	0.9986
298.15 K, m1 = 0.5762	0.9982
298.15 K, m1 = 0.7604	0.9998
298.15 K, m1 = 0.7609	0.9991
298.15 K, m1 = 1.056	1
303.15 K, m1 = 0.207	1.004
303.15 K, m1 = 0.2076	1.004
303.15 K, m1 = 0.3362	1.004
303.15 K, m1 = 0.3364	1.004
303.15 K, m1 = 0.5119	1.004
303.15 K, m1 = 0.5129	1.004
303.15 K, m1 = 0.7159	1.006
303.15 K, m1 = 0.7166	1.006
303.15 K, m1 = 0.8218	1.01
303.15 K, m1 = 0.8221	1.01
303.15 K, m1 = 1.038	1.02

Source: the NIST ThermoML archive (doi:10.1016/j.fluid.2006.10.012)
